In ChEMBL document CHEMBL5346965, “Synthesis of Bleomycin-Inspired RNA Ligands Targeting the Biogenesis of Oncogenic miRNAs” (J Med Chem, 2023):
The source made the active and inactive calls. The calls are words filed in the database; no cut-off is given here.

Tests used:
microRNA 21 [1] = test: Inhibition of pre-miR-21 (unknown origin) dicer cleavage activity preincubated for 30 mins followed by RNAase III addition and measured after 30 to 60 mins by FRET method; assay type: functional
[2] = Selectivity index, ratio of IC50 for inhibition of pre-miR-21 (unknown origin) dicer cleavage activity preincubated for 30 mins followed by MCF-7 cell lysates addition and measured after 30 to 60 mins by FRET method to IC50 for inhibition of pre-miR-21 (unknown origin) dicer cleavage activity preincubated for 30 mins followed by RNAase III addition and measured after 30 to 60 mins by FRET method
microRNA 21 [3] = test: Binding affinity to 5'-fluorescein labeled pre-miR-21 (unknown origin) by fluorescence based assay; assay type: nucleic-acid assay
microRNA 21 [4] = test: Inhibition of pre-miR-21 (unknown origin) dicer cleavage activity preincubated for 30 mins followed by MCF7 cell lysates addition and measured after 30 to 60 mins by FRET method; assay type: functional, subcellular
microRNA 21 [5] = test: Inhibition of pre-miR-21 (unknown origin) dicer cleavage activity upto 1 mM preincubated for 30 mins followed by RNAase III addition and measured after 30 to 60 mins by FRET method; assay type: functional; conditions: time 60-90 min
U-87 MG = test: Antiproliferative activity against human U87 cells incubated for 72 hrs by WST-1 assay; assay type: functional, cell-based, U-87MG ATCC
[6] = Antiproliferative activity against human N15-0385 cells incubated for 72 hrs by WST-1 assay; assay type: functional, cell-based; conditions: N15-0385, 72 h
[7] = Antiproliferative activity against human MRC5 cells incubated for 72 hrs by WST-1 assay; assay type: toxicity, cell-based
[8] = Antiproliferative activity against human N13-1300 cells incubated for 72 hrs by WST-1 assay; assay type: functional, cell-based; conditions: N13-1300, 72 h

Structure (SMILES) | IC50 (microRNA 21 [1]) [µM] | Ratio IC50 [2] | Kd (microRNA 21 [3]) [µM] | IC50 (microRNA 21 [4]) [µM] | other results
NCCCCNCCCNC(=O)c1csc(-c2csc(CCNS(=O)(=O)c3cc4ccccc4s3)n2)n1 | 11.8 | 4.7 | 0.33 | 55.5 | –
NCCCCNCCCNC(=O)c1csc(-c2csc(CCNC(=O)c3ccc4cccnc4n3)n2)n1 | – | – | 0.4 | – | –
NCCCCNCCCNC(=O)c1csc(-c2csc(CCNC(=O)[C@@H](N)CCCCN)n2)n1 | – | – | 0.835 | – | –
Cc1nc(C)c(S(=O)(=O)NCCc2nc(-c3nc(C(=O)NCCCNCCCCN)cs3)cs2)s1 | 75.9 | – | – | – | –
NCCCCNCCCNC(=O)c1csc(-c2csc(CCNC(=O)[C@@H](N)Cc3c[nH]cn3)n2)n1 | – | – | 1.68 | – | –
CC(C)(C)c1ccc(S(=O)(=O)NCCc2nc(-c3nc(C(=O)NCCCNCCCCN)cs3)cs2)cc1 | 16.4 | 5.6 | 0.33 | 92.8 | –
Cc1c(N)nc([C@H](CC(N)=O)NC[C@H](N)C(N)=O)nc1C(=O)N[C@H](C(=O)N[C@H](C)[C@@H](O)[C@H](C)C(=O)N[C@H](C(=O)NCCc1nc(-c2nc(C(=O)NCCCNCCCCN)cs2)cs1)[C@@H](C)O)[C@@H](O[C@@H]1O[C@@H](CO)[C@@H](O)[C@H](O)[C@@H]1O[C@@H]1O[C@H](CO)[C@@H](O)[C@H](OC(N)=O)[C@@H]1O)c1cnc[nH]1 | – | – | 12.6 | – | inhibition (microRNA 21 [5]): inactive
NCCCCNCCCNC(=O)c1csc(-c2csc(CCNS(=O)(=O)c3ccc4ccccc4c3)n2)n1 | – | – | 0.33 | – | –
CN(C)c1ccc(/N=N/c2ccc(S(=O)(=O)NCCc3nc(-c4nc(C(=O)NCCCNCCCCN)cs4)cs3)cc2)cc1 | 1.62 | 4.3 | 0.076 | 6.93 | IC50 (U-87 MG): 45.3 µM; IC50 [6]: 37.1 µM; IC50 at 72 h [7]: > 100 µM; IC50 [8]: 22 µM
C#CCCCCC(=O)NCCc1nc(-c2nc(C(=O)NCCCNCCCCN)cs2)cs1 | – | – | 1.87 | – | –
NCCCCNCCCNC(=O)c1csc(-c2csc(CCNS(=O)(=O)c3cccc4cccnc34)n2)n1 | – | – | 0.33 | – | –
Cc1ccc(S(=O)(=O)NCCc2nc(-c3nc(C(=O)NCCCNCCCCN)cs3)cs2)cc1 | – | – | 0.33 | – | –
NCCCCNCCCNC(=O)c1csc(-c2csc(CCN)n2)n1 | – | – | 3.63 | – | IC50 (U-87 MG): 37.4 µM; IC50 [6]: > 100 µM; inhibition (microRNA 21 [1]; time 60-90 min): inactive; IC50 at 72 h [7]: 16.6 µM; IC50 [8]: 67.3 µM
Cn1nnc2c(C(N)=O)ncn2c1=O [TEMOZOLOMIDE] | – | – | – | – | IC50 [6]: > 100 µM; IC50 [8]: 20.8 µM
NCCCCNCCCNC(=O)c1csc(-c2csc(CCNCc3ccc4[nH]cnc4c3)n2)n1 | 20.3 | 2.5 | – | 50.1 | –
NCCCCNCCCNC(=O)c1csc(-c2csc(CCNS(=O)(=O)c3c[nH]cn3)n2)n1 | 20.3 | – | – | – | –
NCCCCNCCCNC(=O)c1csc(-c2csc(CCNCc3ccc4scnc4c3)n2)n1 | 3.74 | 1.3 | – | 4.68 | IC50 (U-87 MG): 16.5 µM; IC50 [6]: 44.7 µM; IC50 at 72 h [7]: > 100 µM; IC50 [8]: 24.5 µM
NCCCCNCCCNC(=O)c1csc(-c2csc(CCNC(=O)CCCC[C@@H]3SC[C@@H]4NC(=O)N[C@@H]43)n2)n1 | 38.3 | – | 1.91 | – | inhibition (microRNA 21 [4]; time 60-90 min): inactive
NCCCCNCCCNC(=O)c1csc(-c2csc(CCNCc3ccccc3)n2)n1 | 31.2 | 6.2 | – | 195 | –
